Laboratory results taken from patent publication US5409898A, “Compositions and methods for treating infections caused by organisms sensitive to β-lactam antibiotics” (priority 1994, dated 1995).
Read-outs that look alike come from different tables or passages of the source. Non-standard residues stand in square brackets, D forms with d. Residues, ends and D or L forms follow the SMILES beside them. No end group written: not given here. Orn = NCCC[C@H](N)C(=O)O

Key:
E. coli H16 [1] = test: In vivo protection of neutropenic mice from lethal E. coli H16 infection (magainin 2, C-13 peptide, cefepime, amikacin); conditions: magainin 2 two injections 1 mg/mouse; amikacin two injections of 3 mg/kg
Experimental: The ability of magainin and cefepime combinations to protect mice from a lethal infection of E. coli was examined. Mice were made neutropenic by injection of Cytoxan and then challenged with E. coli. Mice were then divided into four different groups: (1) mice that were given no further treatment; (2) were given magainin 2 or C-13 peptide only; (3) were given cefepime only and (4) were given a combination of magainin 2 or C-13 peptide and cefepime. […] When amikacin, an aminoglycoside, was tested in similar experiments, no in vitro bactericidal activity or in vivo protection was found.
Mice were made neutropenic five days prior to bacterial challenge. Neutropenia was induced by subcutaneous injection of 250 mg/kg Cytoxan (cyclophosphamide). The mice were challenged with 2×10^4 E. coli H16. Challenge was by intraperitoneal injection. […] The survival of the mice was monitored for a period of at least 10 days

E. coli ATCC 25922 = test: Serum bactericidal assay in 40% pooled normal human serum (magainin 2 with antibiotics); assay type: cell-based, Escherichia coli; conditions: for synergy of antibiotic with magainin 2: 1/32, 1/16, 1/8 MIC antibiotic, 200 μg/ml magainin 2, 40% pooled normal human serum
human red blood cells = test: Hemolysis assay; assay type: cell-based
E. coli H16 [2] = test: In vivo protection of neutropenic mice from systemic E. coli H16 infection (C-13 peptide analogs)
Text: The ability of C-13 peptide analogs and cefepime combinations to protect mice from a lethal infection of E. coil was examined. Mice were made neutropenic by an injection of cyclophosphamide and then challenged with E. coli. Mice were then divided into four groups: (1) mice that were given PBS; (2) were given C-13 peptide analogs only; (3) were given cefepime only; and (4) were given a combination of C-13 peptide analogs and cefepime.
Male CrL:CF1 mice were made neutropenic five days prior to bacterial challenge. Neutropenia was induced by subcutaneous injection of 250 mg/kg Cytoxan (cyclophosphamide). The mice were challenged with either 2×10^4 E. coli H16 (Table 4) or 5×10^4 A645AP by intraperitoneal injection. Mice were divided into four treatment groups: (1) PBS; (2) C-13 peptide analog (15 mg/kg); (3) cefepime (0.1 mg/kg); (4) a combination treatment of cefepime and C-13 peptide analog (0.1 mg/kg cefepime and 15 mg/kg C-13 peptide analog) that were combined prior to injection. All injections were made in PBS (0.2 ml) and were administered intramuscularly with each injection in separate legs, one and 3.5 hours after bacterial challenge. The survival of the mice was monitored for ten days and the results analyzed by the Fisher Exact test.

[3] = system: endothelial cell proliferation; conditions: Maione et al., 1990; cited from earlier work
[4] = system: E. COLI A645 (ATCC 25922); test: In vitro bactericidal activity (ID50) of cationic oligopeptides, serum bactericidal assay; assay type: cell-based, Escherichia coli
Experimental: Cells were diluted without washing to 5×10^4 cells/ml gelatin-veronel buffer (GBV++) and 0.05 ml was added to serum (see section 7.1.3.) in a 1.5 ml Eppendorf vial. For those bacterial cells pregrown in cefepime, the same amount of cefepime that was present during growth was added for both the preparation and examination of bactericidal activity. […] Peptides were diluted in deionized water to make a stock solution of 2 mg/ml and added to the reaction vial to give the appropriate concentration. The total reaction volume was 0.25 ml.

[5] = neutropenic mice, 2×10^4 E. coli H16 i.p., peptide 15 mg/kg, cefepime 0.1 mg/kg i.m. at one and 3.5 hours, ten days

For `NCC[C@H](O)C(=O)N[C@@H]1C[C@H](N)[C@@H](O[C@H]2O[C@H](CN)[C@@H](O)[C@H](O)[C@H]2O)[C@H](O)[C@H]1O[C@H]1O[C@H](CO)[C@@H](O)[C@H](N)[C@H]1O` [amikacin], which “mice survived (out of total), amikacin experiment” value (E. coli H16 [1]) is on record?
Its value is “three out of 10”.

What about the “synergy of antibiotic with magainin 2” value (E. coli ATCC 25922) of the same compound?
The value was “neither Amikacin, an aminoglycoside and ciproflaxacin, a quinoline were synergistic”.

With `CC(C)C[C@H](NC(=O)[C@H](C)N)C(=O)N[C@@H](Cc1ccc(O)cc1)C(=O)N[C@@H](CCCN)C(=O)N[C@@H](CCCN)C(=O)N[C@@H](CC(C)C)C(=O)N[C@@H](CC(C)C)C(=O)N[C@@H](CCCN)C(=O)N[C@@H](CCCN)C(=O)N[C@@H](CC(C)C)C(=O)N[C@@H](CC(C)C)C(=O)N[C@@H](CCCN)C(=O)N[C@@H](CO)C(=O)N[C@@H](C)C(=O)N[C@@H](CCCN)C(=O)N[C@@H](CCCN)C(=O)N[C@@H](CC(C)C)C(=O)NCC(=O)O` [analog II, Ala--Leu--Tyr--Orn--Orn--Leu--Leu--Orn--Orn--Leu--Leu--Orn--Ser--Ala--Orn--Orn--Leu--Gly] (H-ALY[Orn][Orn]LL[Orn][Orn]LL[Orn]SA[Orn][Orn]LG-OH) as the compound, how does the “RBC LYSIS (%) (100 μG/ML)” value (human red blood cells) read?
Its value is < 1%.

Which “RBC LYSIS (%) (100 μG/ML)” value (human red blood cells) does the source give for `CC(C)C[C@@H](NC(=O)[C@@H](C)N)C(=O)N[C@H](Cc1ccc(O)cc1)C(=O)N[C@H](CCCCN)C(=O)N[C@H](CCCCN)C(=O)N[C@H](CC(C)C)C(=O)N[C@H](CC(C)C)C(=O)N[C@H](CCCCN)C(=O)N[C@H](CCCCN)C(=O)N[C@H](CC(C)C)C(=O)N[C@H](CC(C)C)C(=O)N[C@H](CCCCN)C(=O)N[C@H](CO)C(=O)N[C@H](C)C(=O)N[C@H](CCCCN)C(=O)N[C@H](CCCCN)C(=O)N[C@H](CC(C)C)C(=O)NCC(=O)O` [analog X, dAla--dLeu--dTyr--dLys--dLys--dLeu--dLeu--dLys--dLys--dLeu--dLeu--dLys--dSer--dAla--dLys--dLys--dLeu--Gly] (H-[dA][dL][dY][dK][dK][dL][dL][dK][dK][dL][dL][dK][dS][dA][dK][dK][dL]G-OH) here?
Its value is < 1%.

Which “mice survived (out of total), aztreonam experiment” value (E. coli H16 [2]; similar experiments with aztreonam) does the source give for `C[C@H]1[C@H](NC(=O)/C(=N\OC(C)(C)C(=O)O)c2csc(N)n2)C(=O)N1S(=O)(=O)O` [aztreonam] here?
Its value is “one out of 20”.

What about the “synergy of antibiotic with magainin 2” value (E. coli ATCC 25922) of the same compound?
The value was “synergistic”.

For `CC(C)(O/N=C(\C(=O)N[C@@H]1C(=O)N2C(C(=O)[O-])=C(C[n+]3ccccc3)CS[C@H]12)c1csc(N)n1)C(=O)O` [ceftazidime], which “synergy of antibiotic with magainin 2” value (E. coli ATCC 25922) is on record?
Its value is “synergistic”.

With `O=C(O)c1cn(C2CC2)c2cc(N3CCNCC3)c(F)cc2c1=O` [ciprofloxacin] as the compound, how does the “synergy of antibiotic with magainin 2” value (E. coli ATCC 25922) read?
The value was “neither Amikacin, an aminoglycoside and ciproflaxacin, a quinoline were synergistic”.

For `C[C@@H](O)[C@H]1C(=O)N2C(C(=O)O)=C(SCCN=CN)C[C@H]12` [imipenem], which “synergy of antibiotic with magainin 2” value (E. coli ATCC 25922) is on record?
Its value is “synergistic”.

Which results are given for “AKKLAKLYKKLLKKLLKSAKKLG [analog J, Ala--Lys--Lys--Leu--Ala--Lys--Leu--Tyr--Lys--Lys--Leu--Leu--Lys--Lys--Leu--Leu--Lys--Ser--Ala--Lys--Lys--Leu--Gly]”?
RBC LYSIS (%) (100 μG/ML) (human red blood cells): 2.5%; change in the amount of RBC lysis (human red blood cells): increased the amount of RBC lysis

With “ALYKKIIKKLLESAKKLG [analog H, Ala--Leu--Tyr--Lys--Lys--Ile--Ile--Lys--Lys--Leu--Leu--Glu--Ser--Ala--Lys--Lys--Leu--Gly]” as the compound, how does the “RBC LYSIS (%) (100 μG/ML)” value (human red blood cells) read?
Its value is 1.5%.

Which “RBC LYSIS (%) (100 μG/ML)” value (human red blood cells) does the source give for “ALYKKLLKKLLESAKKLG [analog F, Ala--Leu--Tyr--Lys--Lys--Leu--Leu--Lys--Lys--Leu--Leu--Glu--Ser--Ala--Lys--Lys--Leu--Gly]” here?
Its value is < 1%.

With “ALYKKLLKKLLKFAKKFG [analog P, Ala--Leu--Tyr--Lys--Lys--Leu--Leu--Lys--Lys--Leu--Leu--Lys--Phe--Ala--Lys--Lys--Phe--Gly]” as the compound, how does the “RBC LYSIS (%) (100 μG/ML)” value (human red blood cells) read?
The value was 21%.

For “ALYKKLLKKLLKKAKKLG [analog KK, Ala--Leu--Tyr--Lys--Lys--Leu--Leu--Lys--Lys--Leu--Leu--Lys--Lys--Ala--Lys--Lys--Leu--Gly]”, which “RBC LYSIS (%) (100 μG/ML)” value (human red blood cells) is on record?
The value was < 1%.

Which “RBC LYSIS (%) (100 μG/ML)” value (human red blood cells) does the source give for “ALYKKLLKKLLKSAKKLG [analog G, Ala--Leu--Tyr--Lys--Lys--Leu--Leu--Lys--Lys--Leu--Leu--Lys--Ser--Ala--Lys--Lys--Leu--Gly]” here?
The value was < 1%.

And the “change in the amount of RBC lysis” value (human red blood cells)?
Its value is “no increase”.

With “ALYRRLLRRLLRSARRLG [analog HH, Ala--Leu--Tyr--Arg--Arg--Leu--Leu--Arg--Arg--Leu--Leu--Arg--Ser--Ala--Arg--Arg--Leu--Gly]” as the compound, how does the “RBC LYSIS (%) (100 μG/ML)” value (human red blood cells) read?
Its value is 3%.

Which “inhibitory action compared with C-13” value [3] does the source give for “C-10: human platelet factor-4 peptide, amino acids 58-67 (PLYKKIIKKL; UniProt P02776 89-98, looked up, fragment)” here?
The value was “Little inhibitory action”.

Which “inhibitory action compared with C-13” value [3] does the source give for “C-11: human platelet factor-4 peptide, amino acids 58-68 (PLYKKIIKKLL; UniProt P02776 89-99, looked up, fragment)” here?
The value was “less inhibitory”.

Which “inhibitory action compared with C-13” value [3] does the source give for “C-12: human platelet factor-4 peptide, amino acids 58-69 (PLYKKIIKKLLE; UniProt P02776 89-100, looked up, fragment)” here?
Its value is “less inhibitory”.

Which results are given for Cecropin?
ID50 1/4 MIC CEFEPIME NHS ([4]; 1/4 MIC cefepime, NHS): .25 µg/mL; ID50 1/4 MIC CEFEPIME HI-NHS ([4]; 1/4 MIC cefepime, heat inactivated NHS): .5 µg/mL; ID50 NO CEFEPIME NHS ([4]; no cefepime, NHS): 1 µg/mL; ID50 NO CEFEPIME HI-NHS ([4]; no cefepime, heat inactivated NHS): 1 µg/mL; RBC LYSIS (%) (100 μG/ML) (human red blood cells; 100 μG/ML peptide, 37° C. for 45 minutes): < 1%; protection from systemic E. coli H16 infection (E. coli H16 [2]; Fisher Exact test): no significant increase in protection; % Survival (E. coli H16 [2]; [5]): 20%; Number--Survived/Total (E. coli H16 [2]; [5]): 2/20

With “KWKLYKKLLKKLLKSAKKLG [analog N, Lys--Trp--Lys--Leu--Tyr--Lys--Lys--Leu--Leu--Lys--Lys--Leu--Leu--Lys--Ser--Ala--Lys--Lys--Leu--Gly]” as the compound, how does the “RBC LYSIS (%) (100 μG/ML)” value (human red blood cells) read?
The value was 7.5%.

For “MGN 1: magainin 1, 23 amino acid cationic oligopeptide from skin secretions of Xenopus laevis (GIGKFLHSAGKFGKAFVGEIMKS; Magainin-1; UniProt P11006 37-59, looked up)”, which “MGN killing of untreated bacteria” value (E. coli ATCC 25922; untreated bacteria, 40% PNHS) is on record?
Its value is “blocked the action”.

With “PLYKKIIKKLLES [C-13, Pro--Leu--Tyr--Lys--Lys--Ile--Ile--Lys--Lys--Leu--Leu--Glu--Ser]” as the compound, how does the “RBC LYSIS (%) (100 μG/ML)” value (human red blood cells) read?
The value was < 1%.
